Publication PMC5564600 (Oncotarget, 2017)
Like-named read-outs stand apart in the source and are kept apart here.

Legend:
Assay in all cases: biochemical
Format in all cases: binding
[1] = target: T1, panel of 442 kinases (Homo sapiens, UniProt O96017); conditions: CHEK2; for remaining activity at 1 µM: read-out: % of control at 1 µM
T1 construct: purchased Ambit Biosciences (scanMAXX KINOMEscan)

[2] = target: T2, panel of 442 kinases (Homo sapiens, UniProt P00519, F317L); conditions: for remaining activity at 1 µM: read-out: % of control at 1 µM; for remaining activity at 10 µM: read-out: % of control at 10 µM
T2 construct: purchased Ambit Biosciences (scanMAXX KINOMEscan)

[3] = target: T3, panel of 442 kinases (Homo sapiens, UniProt P22694); conditions: kinase PKAC-beta; for remaining activity at 1 µM: read-out: PKAC-beta (% of control at 1 µM)
T3 construct: purchased Ambit Biosciences (scanMAXX KINOMEscan)

[4] = target: T4, panel of 442 kinases (Homo sapiens, UniProt P36888, K663Q); conditions: FLT3(K663Q); for remaining activity at 1 µM: read-out: % of control at 1 µM
T4 construct: purchased Ambit Biosciences (scanMAXX KINOMEscan)
T4 sequence (P36888 27-993 K663Q): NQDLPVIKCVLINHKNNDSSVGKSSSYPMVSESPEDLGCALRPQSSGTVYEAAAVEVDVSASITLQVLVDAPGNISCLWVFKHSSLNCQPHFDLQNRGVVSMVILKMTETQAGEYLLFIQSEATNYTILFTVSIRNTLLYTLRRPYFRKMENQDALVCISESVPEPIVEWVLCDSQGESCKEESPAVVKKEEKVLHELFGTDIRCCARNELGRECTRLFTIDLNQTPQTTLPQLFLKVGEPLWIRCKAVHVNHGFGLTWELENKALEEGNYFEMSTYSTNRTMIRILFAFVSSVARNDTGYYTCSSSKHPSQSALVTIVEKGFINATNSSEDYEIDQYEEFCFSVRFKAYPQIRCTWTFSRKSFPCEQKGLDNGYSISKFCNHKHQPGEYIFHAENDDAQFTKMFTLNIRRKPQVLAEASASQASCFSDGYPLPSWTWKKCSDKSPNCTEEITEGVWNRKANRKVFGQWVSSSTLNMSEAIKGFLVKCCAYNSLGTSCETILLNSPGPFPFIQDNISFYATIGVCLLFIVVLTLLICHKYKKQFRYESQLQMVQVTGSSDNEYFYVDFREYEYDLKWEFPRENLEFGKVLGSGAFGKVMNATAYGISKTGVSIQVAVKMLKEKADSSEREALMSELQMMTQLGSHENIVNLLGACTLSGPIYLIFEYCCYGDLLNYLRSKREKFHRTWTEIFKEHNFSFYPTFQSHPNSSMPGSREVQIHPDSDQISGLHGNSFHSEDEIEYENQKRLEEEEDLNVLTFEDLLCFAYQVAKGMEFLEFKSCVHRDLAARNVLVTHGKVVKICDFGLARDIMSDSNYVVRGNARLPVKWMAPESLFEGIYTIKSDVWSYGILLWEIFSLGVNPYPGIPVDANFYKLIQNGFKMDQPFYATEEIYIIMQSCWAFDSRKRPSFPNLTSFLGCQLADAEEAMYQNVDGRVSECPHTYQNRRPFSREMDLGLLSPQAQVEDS

[5] = target: T5, panel of 442 kinases (Homo sapiens, UniProt P48730); conditions: CSNK1D; for remaining activity at 1 µM: read-out: % of control at 1 µM
T5 construct: purchased Ambit Biosciences (scanMAXX KINOMEscan)

[6] = target: T6, panel of 442 kinases (Homo sapiens, UniProt P50613); conditions: CDK7; for remaining activity at 1 µM: read-out: % of control at 1 µM
T6 construct: purchased Ambit Biosciences (scanMAXX KINOMEscan)

[7] = target: T7, panel of 442 kinases (Homo sapiens, UniProt Q04759); conditions: kinase PRKCQ; for remaining activity at 1 µM: read-out: PRKCQ (% of control at 1 µM)
T7 construct: purchased Ambit Biosciences (scanMAXX KINOMEscan)

[8] = target: T8, panel of 442 kinases (Homo sapiens, UniProt Q16539); conditions: kinase p38-alpha; for remaining activity at 1 µM: read-out: % of control at 1 µM
T8 construct: purchased Ambit Biosciences (scanMAXX KINOMEscan)

[9] = target: T9, panel of 442 kinases (Homo sapiens, UniProt Q9UBE8); conditions: kinase NLK; for remaining activity at 1 µM: read-out: % of control at 1 µM
T9 construct: purchased Ambit Biosciences (scanMAXX KINOMEscan)
T9 sequence (Q9UBE8 1-527): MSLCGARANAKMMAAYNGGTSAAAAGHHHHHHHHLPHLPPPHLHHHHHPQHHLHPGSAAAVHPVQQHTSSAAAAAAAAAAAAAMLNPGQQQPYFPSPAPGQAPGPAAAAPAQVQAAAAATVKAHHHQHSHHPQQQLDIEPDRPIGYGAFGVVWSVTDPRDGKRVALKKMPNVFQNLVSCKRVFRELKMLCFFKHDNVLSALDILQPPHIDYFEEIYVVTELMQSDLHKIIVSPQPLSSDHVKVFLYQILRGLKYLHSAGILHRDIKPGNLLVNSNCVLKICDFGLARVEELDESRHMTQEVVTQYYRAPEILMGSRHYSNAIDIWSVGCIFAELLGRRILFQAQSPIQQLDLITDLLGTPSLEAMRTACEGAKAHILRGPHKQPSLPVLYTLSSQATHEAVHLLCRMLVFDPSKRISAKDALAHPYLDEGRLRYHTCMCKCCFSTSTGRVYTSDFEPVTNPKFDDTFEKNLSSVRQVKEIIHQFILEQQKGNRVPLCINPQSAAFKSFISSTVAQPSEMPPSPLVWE

[10] = target: T10, panel of 442 kinases (Plasmodium falciparum, UniProt P62344); conditions: kinase PFCDPK1(P.falciparum); for remaining activity at 1 µM: read-out: % of control at 1 µM; for remaining activity at 10 µM: read-out: % of control at 10 µM
T10 construct: purchased Ambit Biosciences (scanMAXX KINOMEscan)

[11] = 10 µM, read-out: % of control at 10 µM

T5 sequence (P48730 whole entry): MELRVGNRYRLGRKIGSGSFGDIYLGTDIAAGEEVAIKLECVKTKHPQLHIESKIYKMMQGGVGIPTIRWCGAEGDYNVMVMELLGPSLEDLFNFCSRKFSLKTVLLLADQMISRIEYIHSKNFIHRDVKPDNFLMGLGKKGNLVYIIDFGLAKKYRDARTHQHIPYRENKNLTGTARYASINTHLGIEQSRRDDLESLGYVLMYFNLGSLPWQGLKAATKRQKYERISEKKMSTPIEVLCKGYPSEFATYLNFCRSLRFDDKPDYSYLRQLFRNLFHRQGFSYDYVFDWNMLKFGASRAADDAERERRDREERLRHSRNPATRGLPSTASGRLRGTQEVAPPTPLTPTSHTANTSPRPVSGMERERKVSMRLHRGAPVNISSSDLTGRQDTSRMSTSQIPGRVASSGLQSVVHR
T2 sequence (P00519 whole entry F317L): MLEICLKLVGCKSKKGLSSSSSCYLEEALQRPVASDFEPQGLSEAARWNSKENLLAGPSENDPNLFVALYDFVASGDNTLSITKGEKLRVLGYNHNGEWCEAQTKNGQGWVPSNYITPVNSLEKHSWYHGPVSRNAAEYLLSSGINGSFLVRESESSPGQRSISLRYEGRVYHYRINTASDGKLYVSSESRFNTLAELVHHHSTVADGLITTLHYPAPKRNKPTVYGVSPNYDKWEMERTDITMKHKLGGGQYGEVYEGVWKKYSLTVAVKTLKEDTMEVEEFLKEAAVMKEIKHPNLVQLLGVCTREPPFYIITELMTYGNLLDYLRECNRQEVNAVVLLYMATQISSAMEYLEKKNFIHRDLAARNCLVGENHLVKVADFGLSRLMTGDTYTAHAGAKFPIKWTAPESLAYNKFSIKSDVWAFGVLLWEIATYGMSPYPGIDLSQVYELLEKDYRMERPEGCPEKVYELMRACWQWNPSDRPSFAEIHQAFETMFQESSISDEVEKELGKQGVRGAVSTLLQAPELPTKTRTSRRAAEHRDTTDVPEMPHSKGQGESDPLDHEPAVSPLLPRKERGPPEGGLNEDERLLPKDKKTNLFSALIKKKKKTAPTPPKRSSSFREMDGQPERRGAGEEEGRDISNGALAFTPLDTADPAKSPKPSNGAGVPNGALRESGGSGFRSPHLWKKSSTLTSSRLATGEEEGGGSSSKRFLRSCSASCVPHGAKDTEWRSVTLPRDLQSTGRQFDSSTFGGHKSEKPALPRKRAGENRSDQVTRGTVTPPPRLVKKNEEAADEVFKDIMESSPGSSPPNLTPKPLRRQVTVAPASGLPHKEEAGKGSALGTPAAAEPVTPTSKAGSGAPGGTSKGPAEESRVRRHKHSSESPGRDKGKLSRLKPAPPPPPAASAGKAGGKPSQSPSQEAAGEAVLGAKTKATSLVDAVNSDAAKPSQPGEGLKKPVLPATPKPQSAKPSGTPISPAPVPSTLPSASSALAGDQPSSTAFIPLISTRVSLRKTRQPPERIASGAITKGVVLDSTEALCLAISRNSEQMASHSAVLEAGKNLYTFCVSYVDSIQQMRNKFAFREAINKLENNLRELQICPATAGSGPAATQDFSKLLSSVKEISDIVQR
T10 sequence (P62344 whole entry): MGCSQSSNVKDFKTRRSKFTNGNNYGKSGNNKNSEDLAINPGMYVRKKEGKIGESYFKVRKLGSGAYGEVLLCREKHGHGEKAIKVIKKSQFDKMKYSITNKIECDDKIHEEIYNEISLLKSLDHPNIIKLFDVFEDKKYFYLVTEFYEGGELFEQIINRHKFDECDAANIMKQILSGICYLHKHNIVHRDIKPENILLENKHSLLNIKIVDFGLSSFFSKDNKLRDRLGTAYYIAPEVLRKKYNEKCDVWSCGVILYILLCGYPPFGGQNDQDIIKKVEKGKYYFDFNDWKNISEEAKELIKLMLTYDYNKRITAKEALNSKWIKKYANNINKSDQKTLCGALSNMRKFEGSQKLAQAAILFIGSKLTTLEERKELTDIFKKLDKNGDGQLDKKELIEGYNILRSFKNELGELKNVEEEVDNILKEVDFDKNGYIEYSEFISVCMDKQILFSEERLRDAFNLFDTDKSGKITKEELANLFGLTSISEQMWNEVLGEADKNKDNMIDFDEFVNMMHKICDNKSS
T7 sequence (Q04759 whole entry): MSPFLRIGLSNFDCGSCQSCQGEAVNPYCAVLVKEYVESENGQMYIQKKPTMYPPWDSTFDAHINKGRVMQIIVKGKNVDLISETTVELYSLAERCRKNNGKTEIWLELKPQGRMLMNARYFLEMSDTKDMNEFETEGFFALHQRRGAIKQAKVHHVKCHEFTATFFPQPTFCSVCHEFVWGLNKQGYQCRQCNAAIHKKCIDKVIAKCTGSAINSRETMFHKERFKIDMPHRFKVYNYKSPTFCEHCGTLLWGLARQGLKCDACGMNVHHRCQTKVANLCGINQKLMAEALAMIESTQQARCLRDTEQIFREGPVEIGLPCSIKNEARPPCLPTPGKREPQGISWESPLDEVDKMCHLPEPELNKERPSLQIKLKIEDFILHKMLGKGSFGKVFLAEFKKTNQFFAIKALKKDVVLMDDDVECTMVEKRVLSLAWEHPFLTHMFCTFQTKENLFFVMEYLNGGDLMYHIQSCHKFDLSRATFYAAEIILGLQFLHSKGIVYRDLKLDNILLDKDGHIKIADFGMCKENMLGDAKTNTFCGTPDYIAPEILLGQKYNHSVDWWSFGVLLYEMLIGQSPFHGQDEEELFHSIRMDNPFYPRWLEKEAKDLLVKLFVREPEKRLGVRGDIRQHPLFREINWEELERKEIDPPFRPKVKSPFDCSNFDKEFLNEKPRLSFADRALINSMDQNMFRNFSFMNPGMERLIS
T1 sequence (O96017 whole entry): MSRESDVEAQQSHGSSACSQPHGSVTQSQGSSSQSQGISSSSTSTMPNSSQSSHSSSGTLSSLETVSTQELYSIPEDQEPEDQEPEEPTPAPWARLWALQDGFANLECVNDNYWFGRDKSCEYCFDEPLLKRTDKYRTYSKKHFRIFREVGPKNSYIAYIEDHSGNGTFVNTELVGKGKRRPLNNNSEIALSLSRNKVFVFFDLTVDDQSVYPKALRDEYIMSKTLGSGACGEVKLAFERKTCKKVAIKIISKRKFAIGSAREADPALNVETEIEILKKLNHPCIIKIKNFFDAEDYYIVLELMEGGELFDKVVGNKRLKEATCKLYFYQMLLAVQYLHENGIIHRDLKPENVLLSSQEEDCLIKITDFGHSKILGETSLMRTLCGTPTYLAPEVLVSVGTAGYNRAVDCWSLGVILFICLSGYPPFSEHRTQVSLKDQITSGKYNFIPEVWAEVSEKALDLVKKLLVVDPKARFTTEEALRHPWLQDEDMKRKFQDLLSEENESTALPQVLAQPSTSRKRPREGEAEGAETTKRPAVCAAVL
T8 sequence (Q16539 whole entry): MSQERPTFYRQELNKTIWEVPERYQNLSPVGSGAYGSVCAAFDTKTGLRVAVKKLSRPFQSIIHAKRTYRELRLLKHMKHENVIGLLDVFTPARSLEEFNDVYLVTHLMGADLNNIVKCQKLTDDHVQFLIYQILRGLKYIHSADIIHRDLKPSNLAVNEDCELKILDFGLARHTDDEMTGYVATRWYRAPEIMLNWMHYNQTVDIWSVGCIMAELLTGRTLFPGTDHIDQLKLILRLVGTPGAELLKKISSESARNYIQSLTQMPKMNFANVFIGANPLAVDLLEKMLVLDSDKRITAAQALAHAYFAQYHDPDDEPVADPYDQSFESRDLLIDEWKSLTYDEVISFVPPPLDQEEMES
T6 sequence (P50613 whole entry): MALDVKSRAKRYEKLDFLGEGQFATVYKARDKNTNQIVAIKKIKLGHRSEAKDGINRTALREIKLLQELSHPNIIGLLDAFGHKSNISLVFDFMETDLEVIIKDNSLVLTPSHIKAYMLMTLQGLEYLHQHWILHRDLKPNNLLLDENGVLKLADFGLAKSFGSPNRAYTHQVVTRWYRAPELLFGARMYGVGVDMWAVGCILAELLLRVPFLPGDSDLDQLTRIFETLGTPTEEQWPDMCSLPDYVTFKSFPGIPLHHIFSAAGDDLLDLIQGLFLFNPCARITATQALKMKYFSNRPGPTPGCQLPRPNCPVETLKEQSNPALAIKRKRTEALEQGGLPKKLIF

| SMILES | remaining activity at 1 µM [1] [%] | remaining activity at 1 µM ([2]; ABL1(F317L)-nonphosphorylated) [%] | remaining activity at 1 µM ([2]; ABL1(F317L)-phosphorylated) [%] | remaining activity at 1 µM [3] [%] | remaining activity at 1 µM [4] [%] | remaining activity at 1 µM [5] [%] | remaining activity at 1 µM [6] [%] | remaining activity at 1 µM [7] [%] | remaining activity at 1 µM [8] [%] | remaining activity at 1 µM [9] [%] | remaining activity at 1 µM [10] [%] | remaining activity at 10 µM [10] [%] | other results |
| --- | --- | --- | --- | --- | --- | --- | --- | --- | --- | --- | --- | --- | --- |
| Nc1cc(C(F)(F)F)c(-c2cc(N3CCOCC3)nc(N3CCOCC3)n2)cn1 [Buparlisib] | 93 | 100 | 100 | 79 | 95 | 92 | 93 | 91 | 87 | 93 | 99 | 100 | remaining activity at 10 µM [1, 11]: 100%; remaining activity at 10 µM ([2]; ABL1(F317L)-nonphosphorylated): 100%; remaining activity at 10 µM ([2]; ABL1(F317L)-phosphorylated): 100%; remaining activity at 10 µM ([3]; 10 µM, read-out: PKAC-beta (% of control at 10 µM)): 100%; remaining activity at 10 µM [4, 11]: 100%; remaining activity at 10 µM [5, 11]: 75%; remaining activity at 10 µM [6, 11]: 100%; remaining activity at 10 µM ([7]; 10 µM, read-out: PRKCQ (% of control at 10 µM)): 100%; remaining activity at 10 µM [8, 11]: 100%; remaining activity at 10 µM [9, 11]: 100% |
| Cn1c(=O)n(-c2ccc(C(C)(C)C#N)cc2)c2c3cc(-c4cnc5ccccc5c4)ccc3ncc21 [Dactolisib, 2-methyl-2-[4-(3-methyl-2-oxo-8-quinolin-3-yl-2,3-dihydroimidazo[4,5-c]quinolin-1-yl)-phenyl] propionitrile] |  | 100 | 100 | 90 | 63 | 76 | 57 | 85 | 87 | 81 | 89 |  |  |
| COc1ncc(-c2ccc3nccc(-c4ccnnc4)c3c2)cc1NS(=O)(=O)c1ccc(F)cc1F [Omipalisib] | 100 | 87 | 100 | 100 | 100 | 100 | 100 | 100 | 97 | 95 | 100 |  |  |
| CS(=O)(=O)N1CCN(Cc2cc3nc(-c4cccc5[nH]ncc45)nc(N4CCOCC4)c3s2)CC1 [Pictilisib, 2-(1H-indazol-4-yl)-6-(4-methanesulfonyl-piperazin-1-ylmethyl)-4-morpholin-4-yl-t hieno[3,2-d]pyrimidine] |  |  |  |  |  |  |  |  |  |  | 100 | 63 |  |
| FC(F)c1nc2ccccc2n1-c1nc(N2CCOCC2)nc(N2CCOCC2)n1 [ZSTK474, 2-(difluoromethyl)-1-[4,6-di(4-morpholinyl)-1,3,5-triazin-2-yl]-1H-benzimidazole] | 92 | 85 | 100 | 100 | 100 | 67 | 68 | 98 | 100 | 84 | 82 |  |  |
